# Measurements: patent US9758527B2, “Cyclohexene derivative, preparation method therefor, and pharmaceutical composition for preventing or treating metabolic diseases, containing same as active ingredient” (HYUNDAI PHARM CO., LTD., priority 2014, dated 2017)
# Where a name gives a salt, the structure may show the parent alone. Read-outs that look alike come from different tables or passages of the source.
# Molecular target: T1, G protein-coupled receptor 119 (GPR-119) (Mesocricetus auratus, UniProt A0A1U8CD06)
# T1 construct: hamster-derived β-cells containing G protein-coupled receptor 119 (GPR-119), HIT-T15 cells; host or cells: HIT-T15 (hamster pancreatic β-cells)
# T1 sequence (A0A1U8CD06 1-334): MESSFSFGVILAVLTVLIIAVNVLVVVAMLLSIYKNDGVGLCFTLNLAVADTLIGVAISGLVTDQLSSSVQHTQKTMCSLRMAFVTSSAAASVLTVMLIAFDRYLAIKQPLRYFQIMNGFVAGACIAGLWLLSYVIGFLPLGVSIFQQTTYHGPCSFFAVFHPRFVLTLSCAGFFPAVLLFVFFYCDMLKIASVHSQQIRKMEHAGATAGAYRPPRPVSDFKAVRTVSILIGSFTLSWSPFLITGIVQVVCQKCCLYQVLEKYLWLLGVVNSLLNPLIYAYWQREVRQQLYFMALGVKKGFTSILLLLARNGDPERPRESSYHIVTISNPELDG
# Assay: Evaluation of cAMP activity in HIT-T15 cells (HTRF cAMP dynamic kit)
# Type: cell-based, hamster
# Conditions: cAMP activation
# Method: To check whether the cyclohexene derivatives according to the present invention activate cyclic adenosine monophosphate (cAMP), experiments were carried out, as follows.
# The HIT-T15 cells were plated on a 96-well plate at 60,000 cells per well. On the next day of plating, the cells were treated with a varying concentration of each of the example compounds according to the present invention, and incubated at 37° C. for an hour. In this case, each of the treated compounds was used at six concentrations, ranging from […], to treat the cells.
# The cyclic adenosine monophosphate (cAMP) activity was measured according to the manufacturer's instruction using a cAMP dynamic kit commercially available from Cis Bio Inc. (Bedford, Mass.). The cells were lysed, and a level of cAMP was determined by a competitive immunoassay using D2-labeled cAMP and a cryptate-labeled anti-cAMP antibody. Fluorescence was read in Flex Station (Molecular Devices). […] Unlabeled cAMP in the cell lysate competed with the D2-labeled cAMP against the cryptate-labeled antibody. Since a decrease in the measured intensity of the FRET signals represents a level of cAMP in the cells, the cAMP activities of the compounds are calculated as a change in FRET signals by adjusting an amount of dimethyl sulfoxide (DMSO).
# [1] = 1 h at 37° C., six concentrations, read-out: EC50
SMILES,EC50 [1] [nM],EC50 (read-out: EC50 value) [nM],"EC50 (EC50 (nM), 1 h at 37° C., six concentrations) [nM]",EC50 (EC50 value) [nM]
"CC(C)(C)OC(=O)N1CCC(COc2ccc(C3=CCC(C(=O)NC4CCCC4)CC3)cc2)CC1 (centres unmarked) [Example 195, tert-butyl 4-((4-(4-(cyclopentylcarbamoyl)cyclohex-1-enyl)phenoxy)methyl)piperidine-1-carboxylate]",28,≤ 50,,
"CC(C)(C)OC(=O)N1CCC(COc2ccc(C3=CCC(C(=O)N4CC[C@@H](F)C4)CC3)cn2)CC1 (stereo partly drawn) [Example 90, tert-butyl 4-((5-(4-((R)-3-fluoropyrrolidine-1-carbonyl)cyclohex-1-enyl)pyridin-2-yloxy)methyl)piperidine-1-carboxylate]",24,≤ 50,,
"CC(C)c1noc(N2CCC(COc3ccc(C4=CCC(C(=O)NCCC(=O)N5CCC[C@H]5C#N)CC4)cc3F)CC2)n1 (stereo partly drawn) [Example 140, N-(3-((S)-2-cyanopyrrolidin-1-yl)-3-oxopropyl)-4-(3-fluoro-4-((1-(3-isopropyl-1,2,4-oxadiazol-5-yl)piperidin-4-yl)methoxy)phenyl)cyclohex-3-enecarboxamide]",120,,,
"CC(C)c1noc(N2CCC(COc3ccc(C4=CCC(C(=O)NCC(F)(F)F)CC4)cc3)CC2)n1 (centres unmarked) [Example 78, 4-(4-((1-(3-isopropyl-1,2,4-oxadiazol-5-yl)piperidin-4-yl)methoxy)phenyl)-N-(2,2,2-trifluoroethyl)cyclohex-3-enecarboxamide]",100,,,
"CCc1cnc(N2CCC(COc3ccc(C4=CCC(C(=O)N5CC[C@H](CO)C5)CC4)cc3)CC2)nc1 (stereo partly drawn) [Example 152, (4-(4-((1-(5-ethylpyrimidin-2-yl)piperidin-4-yl)methoxy)phenyl)cyclohex-3-enyl)((S)-3-(hydroxymethyl)pyrrolidin-1-yl)methanone]",36,≤ 50,,
"CCc1cnc(N2CCC(COc3ccc(C4=CCC(C(=O)NC[C@@H](O)CO)CC4)cc3)CC2)nc1 (stereo partly drawn) [Example 12, N-((R)-2,3-dihydroxypropyl)-4-(4-((1-(5-ethylpyrimidin-2-yl)piperidin-4-yl)methoxy)phenyl)cyclohex-3-enecarboxamide]",80,,,
"CC(C)(C)OC(=O)N1CCC(COc2ccc(C3=CCC(C(=O)NCC(F)F)CC3)cc2)CC1 (centres unmarked) [Example 3, tert-butyl 4-((4-(4-(2,2-difluoroethylcarbamoyl)cyclohex-1-enyl)phenoxy)methyl)piperidine-1-carboxylate]",34,≤ 50,,
"CC(C)c1noc(N2CCC(COc3ccc(C4=CCC(C(=O)N5CCOCC5)CC4)nc3)CC2)n1 (centres unmarked) [Example 100, (4-(5-((1-(3-isopropyl-1,2,4-oxadiazol-5-yl)piperidin-4-yl)methoxy)pyridin-2-yl)cyclohex-3-enyl)(morpholino)methanone]",95,,,
"CC(C)(C)OC(=O)N1CCC(COc2ccc(C3=CCC(C(=O)N4CCC[C@H]4C#N)CC3)cc2F)CC1 (stereo partly drawn) [Example 114, tert-butyl 4-((4-(4-((S)-2-cyanopyrrolidine-1-carbonyl)cyclohex-1-enyl)-2-fluorophenoxy)methyl)piperidine-1-carboxylate]",14,≤ 50,,
"CCc1cnc(N2CCC(COc3ccc(C4=CCC(C(=O)N5CC[C@H](F)C5)CC4)cc3)CC2)nc1 (stereo partly drawn) [Example 161, (4-(4-((1-(5-ethylpyrimidin-2-yl)piperidin-4-yl)methoxy)phenyl)cyclohex-3-enyl)((S)-3-fluoropyrrolidin-1-yl)methanone hydrochloride]",6,,,
"CCc1cnc(N2CCC(COc3ccc(C4=CCC(C(=O)N5CCC(O)CC5)CC4)cc3)CC2)nc1 (centres unmarked) [Example 164, (4-(4-((1-(5-ethylpyrimidin-2-yl)piperidin-4-yl)methoxy)phenyl)cyclohex-3-enyl)(4-hydroxypiperidin-1-yl)methanone]",16,≤ 50,,
"CC(C)c1noc(N2CCC(COc3ccc(C4=CCC(C(=O)NCC(C)(C)CO)CC4)cc3)CC2)n1 (centres unmarked) [Example 22, N-(3-hydroxy-2,2-dimethylpropyl)-4-(4-((1-(3-isopropyl-1,2,4-oxadiazol-5-yl)piperidin-4-yl)methoxy)phenyl)cyclohex-3-enecarboxamide]",41,≤ 50,,
"CC(C)(C)OC(=O)N1CCC(COc2ccc(C3=CCC(C(=O)N4CCN(CC5CC5)CC4)CC3)cc2)CC1 (centres unmarked) [Example 256, tert-butyl 4-((4-(4-(4-(cyclopropylmethyl)piperazine-1-carbonyl)cyclohex-1-enyl)phenoxy)methyl)piperidine-1-carboxylate]",32,,,
"CCc1cnc(N2CCC(COc3ccc(C4=CCC(C(=O)N5CC[C@H](F)C5)CC4)cc3)CC2)nc1 (stereo partly drawn) [Example 160, (4-(4-((1-(5-ethylpyrimidin-2-yl)piperidin-4-yl)methoxy)phenyl)cyclohex-3-enyl)((S)-3-fluoropyrrolidin-1-yl)methanone]",14,≤ 50,,
"C[C@@H](CO)NC(=O)C1CC=C(c2ccc(OCC3CCN(C(=O)OC(C)(C)C)CC3)c(F)c2)CC1 (stereo partly drawn) [Example 59, tert-butyl 4-((2-fluoro-4-(4-((S)-1-hydroxypropan-2-ylcarbamoyl)cyclohex-1-enyl)phenoxy)methyl)piperidine-1-carboxylate]",78,,,
"CC(C)c1noc(N2CCC(COc3ccc(C4=CCC(C(=O)NC[C@H](O)CO)CC4)cc3)CC2)n1 (stereo partly drawn) [Example 18, N-((S)-2,3-dihydroxypropyl)-4-(4-((1-(3-isopropyl-1,2,4-oxadiazol-5-yl)piperidin-4-yl)methoxy)phenyl)cyclohex-3-enecarboxamide]",170,,,
"CC(C)c1noc(N2CCC(COc3ccc(C4=CCC(C(=O)N5CCC[C@H]5C#N)CC4)cc3F)CC2)n1 (stereo partly drawn) [Example 115, (2S)-1-(4-(3-fluoro-4-((1-(3-isopropyl-1,2,4-oxadiazol-5-yl)piperidin-4-yl)methoxy)phenyl)cyclohex-3-enecarbonyl)pyrrolidine-2-carbonitrile]",15,≤ 50,,
"CC(C)c1noc(N2CCC(COc3ccc(C4=CCC(C(=O)N5CC[C@H](O)C5)CC4)cc3)CC2)n1 (stereo partly drawn) [Example 49, ((S)-3-hydroxypyrrolidin-1-yl)(4-(4-((1-(3-isopropyl-1,2,4-oxadiazol-5-yl)piperidin-4-yl)methoxy)phenyl)cyclohex-3-enyl)methanone]",26,≤ 50,,
"CCc1cnc(N2CCC(COc3ccc(C4=CCC(C(=O)N(C)OC)CC4)cc3)CC2)nc1 (centres unmarked) [Example 197, 4-(4-((1-(5-ethylpyrimidin-2-yl)piperidin-4-yl)methoxy)phenyl)-N-methoxy-N-methylcyclohex-3-enecarboxamide]",18,≤ 50,,
"CC(C)c1noc(N2CCC(COc3ccc(C4=CCC(C(=O)N(C)CCO)CC4)cc3F)CC2)n1 (centres unmarked) [Example 81, 4-(3-fluoro-4-((1-(3-isopropyl-1,2,4-oxadiazol-5-yl)piperidin-4-yl)methoxy)phenyl)-N-(2-hydroxyethyl)-N-methylcyclohex-3-enecarboxamide]",9,≤ 50,,
"CCc1cnc(N2CCC(COc3ccc(C4=CCC(C(=O)N5CCC6(CC5)OCCO6)CC4)cc3)CC2)nc1 (centres unmarked) [Example 229, (4-(4-((1-(5-ethylpyrimidin-2-yl)piperidin-4-yl)methoxy)phenyl)cyclohex-3-enyl)(1,4-dioxa-8-azaspiro[4.5]decan-8-yl)methanone]",,,11,≤ 50
"CN(CCO)C(=O)C1CC=C(c2ccc(OCC3CCN(C(=O)OC(C)(C)C)CC3)cc2)CC1 (centres unmarked) [Example 236, tert-butyl 4-((4-(4-((2-hydroxyethyl)(methyl)carbamoyl)cyclohex-1-enyl)phenoxy)methyl)piperidine-1-carboxylate]",14,≤ 50,,
"CC(C)(C)OC(=O)N1CCC(COc2ccc(C3=CCC(C(=O)NC[C@@H](O)CO)CC3)cc2F)CC1 (stereo partly drawn) [Example 64, tert-butyl 4-((4-(4-((R)-2,3-dihydroxypropylcarbamoyl)cyclohex-1-enyl)-2-fluorophenoxy)methyl)piperidine-1-carboxylate]",50,≤ 50,,
"CCN1CCN(C(=O)C2CC=C(c3ccc(OCC4CCN(C(=O)OC(C)(C)C)CC4)cc3)CC2)CC1 (centres unmarked) [Example 203, tert-butyl 4-((4-(4-(4-ethylpiperazine-1-carbonyl)cyclohex-1-enyl)phenoxy)methyl)piperidine-1-carboxylate]",37,,,
"CN(CCCO)C(=O)C1CC=C(c2ccc(OCC3CCN(C(=O)OC(C)(C)C)CC3)cc2)CC1 (centres unmarked) [Example 6, tert-butyl 4-((4-(4-((3-hydroxypropyl)(methyl)carbamoyl)cyclohex-1-enyl)phenoxy)methyl)piperidine-1-carboxylate]",38,≤ 50,,
